Test results taken from US9879024B2, “Crystal forms of (R)-N-methylnaltrexone bromide and uses thereof” (Progenics Pharmaceuticals, Inc., priority 2007, dated 2018).

How the values were obtained:
Type in all cases: physicochemical
[1] = Equilibrium solubility of Form A at room temperature in solvents and aqueous buffers; conditions: thermodynamic from solid, read-out: Solubility at R.T.
Experimental: In each case, the equilibrium solubility of Form A at room temperature was measured by placing the compound in excess into different solvents and stirring overnight at ambient room temperature, protected from light. Solubility in the following solvents and aqueous buffers was evaluated at room temperature: methanol, ethanol, benzyl alcohol, dimethyl sulfoxide, water for injection, bacteriostatic water (containing 0.9% benzyl alcohol), 5% dextrose, normal saline (0.9% NaCl), pH 1.1 (glycine HCl), pH 4.2 (glycine HCl), pH 7.1 (phosphate buffer), and pH 9.1 (glycine). Solubilities are reported to the nearest mg/mL unless otherwise stated.

[2] = Solubility of Form A at 37° C. under conditions that simulate the human GI tract (HPLC of filtrate); conditions: thermodynamic from solid, 37° C. overnight
Experimental: […] All solutions were stored overnight in a 37° C. oven, and then filtered through a Whatman 0.45 μm nylon syringe filter to remove insoluble material.

[3] = Water solubility of amorphous Compound 1; conditions: qualitative statement, no data given

Row | Structure (SMILES) | solubility ([1]; aqueous buffer, pH 4.2 (glycine HCl buffer)) [mg/mL] | solubility ([1]; aqueous buffer, pH 7.1 (phosphate buffer)) [mg/mL] | solubility ([1]; aqueous buffer, pH 9.1 (glycine buffer)) [mg/mL] | solubility ([1]; dimethyl sulfoxide, organic solvent or mixture, Dimethylsulfoxide, stirred overnight) [mg/mL] | solubility ([1]; organic solvent or mixture, Benzyl alcohol, stirred overnight) [mg/mL] | solubility ([1]; organic solvent or mixture, Ethanol, stirred overnight) [mg/mL] | solubility ([1]; organic solvent or mixture, Methanol, stirred overnight) [mg/mL] | solubility ([1]; saline or isotonic, 5% Dextrose, stirred overnight) [mg/mL] | solubility ([1]; saline or isotonic, Normal saline (0.9% NaCl), stirred overnight) [mg/mL] | solubility ([1]; simulated gastric fluid, 0.1N HCl) [mg/mL] | solubility ([1]; simulated gastric fluid, pH 1.1 (glycine HCl buffer)) [mg/mL] | solubility ([1]; Bacteriostatic water (0.9% benzyl alcohol), stirred overnight) [mg/mL] | solubility ([1]; Water for injection, stirred overnight) [mg/mL] | solubility ([2]; aqueous buffer, pH 4.5 (acetate buffer)) [mg/mL] | solubility ([2]; aqueous buffer, pH 6.8 (phosphate buffer)) [mg/mL] | solubility ([2]; aqueous buffer, pH 9.0 (borate buffer)) [mg/mL] | solubility ([2]; pH 1, simulated gastric fluid, 0.1N HCl) [mg/mL] | water solubility [3]
1 | C[N+]1(CC2CC2)CC[C@]23c4c5ccc(O)c4O[C@H]2C(=O)CC[C@@]3(O)[C@H]1C5.[Br-] (stereo partly drawn) [Form A, (R)-N-methylnaltrexone bromide] | 73.8 | 74.9 | 71.1 | > 170 | 85.5 | 6.1 | 2.5 | 61.3 | 59.7 | 76.6 | 70.1 | 86.5 | 73.5 | 100 | 101 | 101 | 101 | 
2 | C[N+]1(CC2CC2)CC[C@]23c4c5ccc(O)c4O[C@H]2C(=O)CC[C@@]3(O)[C@H]1C5.[Br-] (stereo partly drawn) [amorphous Compound 1, (R)-N-methylnaltrexone bromide] |  |  |  |  |  |  |  |  |  |  |  |  |  |  |  |  |  | enhanced water solubility
